In ChEMBL document CHEMBL5257114, “Discovery of imidazo[1,2-b]pyridazine macrocyclic derivatives as novel ALK inhibitors capable of combating multiple resistant mutants” (Bioorg Med Chem Lett, 2023):

What was measured:
[1] = Inhibition of ALK L1196M/G1202R mutant (unknown origin); set-up: species or system Homo sapiens
[2] = target: ALK tyrosine kinase receptor (Homo sapiens, UniProt Q9UM73); assay: Inhibition of wild type ALK (unknown origin)
[3] = target: ALK tyrosine kinase receptor (Homo sapiens, UniProt Q9UM73, G1202R); assay: Inhibition of ALK G1202R mutant (unknown origin)
Sequence of ALK tyrosine kinase receptor (Homo sapiens, UniProt Q9UM73, G1202R) (Q9UM73 19-1620 G1202R limits assumed): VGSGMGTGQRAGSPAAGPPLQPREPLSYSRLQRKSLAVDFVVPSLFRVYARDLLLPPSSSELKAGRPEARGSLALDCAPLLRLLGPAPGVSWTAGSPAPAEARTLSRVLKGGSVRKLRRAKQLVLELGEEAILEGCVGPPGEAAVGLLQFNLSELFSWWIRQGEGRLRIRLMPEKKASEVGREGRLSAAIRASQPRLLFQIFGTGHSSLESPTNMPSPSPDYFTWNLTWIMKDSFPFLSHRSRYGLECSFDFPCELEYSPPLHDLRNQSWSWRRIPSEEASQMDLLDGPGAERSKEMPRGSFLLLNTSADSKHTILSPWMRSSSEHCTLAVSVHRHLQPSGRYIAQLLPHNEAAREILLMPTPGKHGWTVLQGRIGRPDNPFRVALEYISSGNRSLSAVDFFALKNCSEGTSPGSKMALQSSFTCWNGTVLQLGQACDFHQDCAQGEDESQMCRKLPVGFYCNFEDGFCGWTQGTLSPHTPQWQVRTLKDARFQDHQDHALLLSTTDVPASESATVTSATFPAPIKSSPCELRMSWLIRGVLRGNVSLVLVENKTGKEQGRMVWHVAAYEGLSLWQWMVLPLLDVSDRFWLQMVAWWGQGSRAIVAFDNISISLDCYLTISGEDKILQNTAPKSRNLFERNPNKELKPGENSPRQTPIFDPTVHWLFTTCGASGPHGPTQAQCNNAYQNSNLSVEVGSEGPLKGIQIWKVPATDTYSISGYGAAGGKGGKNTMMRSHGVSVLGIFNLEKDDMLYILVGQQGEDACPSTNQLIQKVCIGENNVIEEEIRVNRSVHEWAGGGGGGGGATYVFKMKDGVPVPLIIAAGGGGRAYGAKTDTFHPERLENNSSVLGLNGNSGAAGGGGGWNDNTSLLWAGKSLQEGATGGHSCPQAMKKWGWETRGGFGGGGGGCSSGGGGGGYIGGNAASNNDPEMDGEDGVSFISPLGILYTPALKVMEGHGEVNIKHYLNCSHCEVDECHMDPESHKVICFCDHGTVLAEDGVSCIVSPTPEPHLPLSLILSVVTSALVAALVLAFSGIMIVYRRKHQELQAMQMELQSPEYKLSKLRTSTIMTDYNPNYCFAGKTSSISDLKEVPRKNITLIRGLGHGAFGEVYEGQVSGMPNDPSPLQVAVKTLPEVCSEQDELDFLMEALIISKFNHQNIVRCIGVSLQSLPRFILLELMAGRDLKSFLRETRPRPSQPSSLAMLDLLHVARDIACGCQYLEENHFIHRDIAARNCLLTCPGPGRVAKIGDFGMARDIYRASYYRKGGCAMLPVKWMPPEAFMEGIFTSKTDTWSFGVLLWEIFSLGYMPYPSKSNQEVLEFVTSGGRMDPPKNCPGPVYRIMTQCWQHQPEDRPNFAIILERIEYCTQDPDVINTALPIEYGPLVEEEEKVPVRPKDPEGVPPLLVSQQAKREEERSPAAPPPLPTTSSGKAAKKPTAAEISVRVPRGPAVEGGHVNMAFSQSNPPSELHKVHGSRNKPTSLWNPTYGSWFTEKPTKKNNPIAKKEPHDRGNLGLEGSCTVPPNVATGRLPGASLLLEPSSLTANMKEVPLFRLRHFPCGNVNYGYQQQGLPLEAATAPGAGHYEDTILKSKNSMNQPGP

[4] = Antiproliferative activity against mouse Ba/F3 EML4-ALK-G1202R cells assessed as cell growth inhibition by CCK-8 assay; type: functional, cell-based
KARPAS-299 = assay: Antiproliferative activity against human KARPAS-299 cells assessed as cell growth inhibition by CCK-8 assay
[5] = Metabolic stability in human liver microsomes assessed as parent compound remaining measured after 60 mins; type: ADME, Microsome; conditions: read-out: Stability
[6] = Metabolic stability in human liver microsomes assessed as clearance; type: ADME, Microsome; conditions: read-out: CLH
BaF3 = assay: Antiproliferative activity against EML4-ALK-L1196M/G1202R mutated mouse BaF3 cells assessed as cell growth inhibition by CCK-8 assay; type: functional, cell-based
[7] = Metabolic stability in human liver microsomes assessed as half life; type: ADME, Microsome

Sequence of ALK tyrosine kinase receptor (Homo sapiens, UniProt Q9UM73) (Q9UM73 whole entry): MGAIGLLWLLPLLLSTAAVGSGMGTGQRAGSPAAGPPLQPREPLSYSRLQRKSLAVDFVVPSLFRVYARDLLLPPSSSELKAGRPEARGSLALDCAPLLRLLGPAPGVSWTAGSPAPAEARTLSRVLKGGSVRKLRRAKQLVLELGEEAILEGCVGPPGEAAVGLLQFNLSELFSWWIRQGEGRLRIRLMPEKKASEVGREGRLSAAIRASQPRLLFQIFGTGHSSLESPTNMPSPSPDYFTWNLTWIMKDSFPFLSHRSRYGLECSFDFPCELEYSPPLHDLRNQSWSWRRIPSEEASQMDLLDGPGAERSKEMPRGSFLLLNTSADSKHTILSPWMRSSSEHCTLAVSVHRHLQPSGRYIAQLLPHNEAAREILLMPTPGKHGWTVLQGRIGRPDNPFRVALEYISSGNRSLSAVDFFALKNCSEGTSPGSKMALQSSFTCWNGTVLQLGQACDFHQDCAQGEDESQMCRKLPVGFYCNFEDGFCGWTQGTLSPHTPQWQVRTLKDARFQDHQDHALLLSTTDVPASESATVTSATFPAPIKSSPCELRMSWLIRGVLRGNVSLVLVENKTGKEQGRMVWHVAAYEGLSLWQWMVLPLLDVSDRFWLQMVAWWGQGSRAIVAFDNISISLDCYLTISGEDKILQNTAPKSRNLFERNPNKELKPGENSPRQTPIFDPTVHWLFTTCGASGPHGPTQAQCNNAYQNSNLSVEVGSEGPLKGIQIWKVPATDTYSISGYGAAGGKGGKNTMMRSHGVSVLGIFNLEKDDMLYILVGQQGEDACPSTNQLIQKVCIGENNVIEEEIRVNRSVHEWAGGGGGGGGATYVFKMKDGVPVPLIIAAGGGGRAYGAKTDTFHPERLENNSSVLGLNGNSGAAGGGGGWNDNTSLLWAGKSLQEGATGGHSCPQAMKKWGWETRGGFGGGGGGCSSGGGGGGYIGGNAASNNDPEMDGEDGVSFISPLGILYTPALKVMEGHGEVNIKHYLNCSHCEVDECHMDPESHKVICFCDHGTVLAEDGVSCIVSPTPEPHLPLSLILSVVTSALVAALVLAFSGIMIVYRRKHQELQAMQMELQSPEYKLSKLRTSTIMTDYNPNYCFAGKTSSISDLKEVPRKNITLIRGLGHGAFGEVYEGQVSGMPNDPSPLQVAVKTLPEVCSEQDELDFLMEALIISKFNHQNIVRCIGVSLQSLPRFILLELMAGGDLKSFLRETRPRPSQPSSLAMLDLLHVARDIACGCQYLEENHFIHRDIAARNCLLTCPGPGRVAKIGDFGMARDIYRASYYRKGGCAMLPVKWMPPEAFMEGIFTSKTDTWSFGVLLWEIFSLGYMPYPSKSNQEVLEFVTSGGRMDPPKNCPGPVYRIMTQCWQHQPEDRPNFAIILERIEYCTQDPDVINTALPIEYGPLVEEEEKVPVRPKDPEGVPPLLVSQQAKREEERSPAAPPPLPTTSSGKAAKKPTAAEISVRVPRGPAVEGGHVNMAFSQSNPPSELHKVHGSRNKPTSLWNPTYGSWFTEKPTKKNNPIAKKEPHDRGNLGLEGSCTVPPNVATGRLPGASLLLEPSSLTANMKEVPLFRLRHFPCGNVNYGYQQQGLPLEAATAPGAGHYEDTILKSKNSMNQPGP

| IC50 [1] | IC50 [2] | IC50 [3] | IC50 (KARPAS-299) | remaining at 1 h [5] | microsomal CLint [6] | IC50 (BaF3) | half-life [7] | SMILES | IC50 [4] |
| --- | --- | --- | --- | --- | --- | --- | --- | --- | --- |
| 328 nM | 99 nM | 145 nM |  |  |  |  |  | CC(C)N1Cc2cc(F)ccc2OCC(C)(C)NC(=O)c2cnc3ccc1nn23 |  |
| 37 nM | 19 nM | 20 nM |  |  |  |  |  | CC1(C)COc2ccc(F)cc2CNc2ccc3ncc(n3n2)C(=O)N1 |  |
| 84 nM | 27 nM | 22 nM |  |  |  |  |  | CCN1Cc2cc(F)ccc2OCC(C)(C)NC(=O)c2cnc3ccc1nn23 |  |
| 442 nM | 159 nM | 200 nM |  |  |  |  |  | CC1(C)COc2ccc(F)cc2CN(C2CCC2)c2ccc3ncc(n3n2)C(=O)N1 |  |
| 95 nM | 25 nM | 19 nM |  |  |  |  |  | CN1Cc2cc(F)ccc2OCC(C)(C)NC(=O)c2cnc3ccc1nn23 |  |
| 309 nM | 77 nM | 82 nM |  |  |  |  |  | CC1(C)COc2ccc(F)cc2CN(C2CC2)c2ccc3ncc(n3n2)C(=O)N1 |  |

Second part, the molecule before the results:

| SMILES | IC50 [1] | IC50 [2] | IC50 [3] | IC50 (KARPAS-299) | remaining at 1 h [5] | microsomal CLint [6] | IC50 (BaF3) | half-life [7] | IC50 [4] |
| --- | --- | --- | --- | --- | --- | --- | --- | --- | --- |
| C[C@H]1Nc2ccc3ncc(n3n2)C(=O)NCCOc2ccc(F)cc21 | 59 nM | 13 nM | 28 nM |  |  |  |  |  |  |
| C[C@H]1Nc2ccc3ncc(n3n2)C(=O)NC(C)(C)COc2ccc(F)cc21 | 26 nM | 8.3 nM | 6.4 nM |  |  |  |  |  |  |
| CCC[C@H]1Nc2ccc3ncc(n3n2)C(=O)NC2(CC2)COc2ccc(F)cc21 |  | 415 nM | 1000 nM |  |  |  |  |  |  |
| C[C@H]1CNC(=O)c2cnn3ccc(nc23)N[C@H](C)c2cc(F)ccc2O1 [REPOTRECTINIB] | 20 nM |  |  | 40 nM | 46.1% | 25.6 µL/min/mg | 208 nM | 54.1 min | 164 nM |
| C[C@@H]1Nc2ccc3ncc(n3n2)C(=O)NC2(CC2)COc2ccc(F)cc21 |  | 482 nM | 1000 nM |  |  |  |  |  |  |
| C[C@H]1Nc2ccc3ncc(n3n2)C(=O)NC2(CC2)COc2ccc(F)cc21 | 24 nM | 4.2 nM | 8 nM | 39 nM | 28.8% | 41 µL/min/mg | 76 nM | 33.8 min | 56 nM |
| C=CC[C@H]1Nc2ccc3ncc(n3n2)C(=O)NC2(CC2)COc2ccc(F)cc21 | 34.4 nM | 9.7 nM | 64 nM |  |  |  |  |  |  |
| C[C@H]1Nc2ccc3ncc(n3n2)C(=O)NC2(CC2)COc2cc(F)ccc21 | 984 nM | 373 nM | 993 nM |  |  |  |  |  |  |
| C[C@H]1CNC(=O)c2cnc3ccc(nn23)N[C@H](C)c2cc(F)ccc2O1 | 22 nM | 5.1 nM | 11 nM | 72 nM |  |  | 147 nM |  | 84 nM |
| Cc1cc2ncc3n2nc1N[C@H](C)c1cc(F)ccc1OCC1(CC1)NC3=O | 85 nM | 18 nM | 47 nM |  |  |  |  |  |  |
| C[C@H]1Nc2ccc3ncc(n3n2)C(=O)NC2(CC2)COc2ccccc21 | 173 nM | 27 nM | 98 nM |  |  |  |  |  |  |
| C[C@H]1Nc2ccc3ncc(n3n2)C(=O)NC2(CC2)COc2ccc(Cl)cc21 | 105 nM | 29 nM | 56 nM |  |  |  |  |  |  |
| C[C@H]1Nc2ccc3ncc(n3n2)C(=O)NC2(CCC2)COc2ccc(F)cc21 | 18 nM | 7.6 nM | 4.7 nM |  |  |  |  |  |  |
